From patent US20190282498A1, “FREEZE-DRIED PROBIOTIC FOODSTUFFS” (IMAGILIN TECHNOLOGY, LLC, priority 2018, published 2019)

Tested on: E. coli
Test: Survival of E. coli with amoxicillin (comparison, data not shown)
Format: cell-based
Settings: 500 μg/ml of amoxicillin
Description: In order to determine whether freeze-drying interfered with this antibiotic compatibility, Pediococcus probiotic freeze-dried products were exposed amoxicillin at 10 μg/ml, 50 μg/ml, 100 μg/ml, and 500 μg/ml, and incubated at 45° C. for […] to see if any survival of Pediococcus acidilactici NRRL B-50517. […] For comparison, E. coli had 0% survival at 500 μg/ml of amoxicillin (data not shown).

## CC1(C)S[C@@H]2[C@H](NC(=O)[C@H](N)c3ccc(O)cc3)C(=O)N2[C@H]1C(=O)O [amoxicillin]
  survival of E. coli: 0%
